Reference: patent publication US9777005B2 (Takeda Pharmaceutical Company Limited, priority 2012, dated 2017)

Target: T1, human M1 receptor (hCHRM1) (Homo sapiens, UniProt P11229)
T1 construct: expressed in transfected cells; host or cells: CHO-K1
T1 sequence (P11229 1-460): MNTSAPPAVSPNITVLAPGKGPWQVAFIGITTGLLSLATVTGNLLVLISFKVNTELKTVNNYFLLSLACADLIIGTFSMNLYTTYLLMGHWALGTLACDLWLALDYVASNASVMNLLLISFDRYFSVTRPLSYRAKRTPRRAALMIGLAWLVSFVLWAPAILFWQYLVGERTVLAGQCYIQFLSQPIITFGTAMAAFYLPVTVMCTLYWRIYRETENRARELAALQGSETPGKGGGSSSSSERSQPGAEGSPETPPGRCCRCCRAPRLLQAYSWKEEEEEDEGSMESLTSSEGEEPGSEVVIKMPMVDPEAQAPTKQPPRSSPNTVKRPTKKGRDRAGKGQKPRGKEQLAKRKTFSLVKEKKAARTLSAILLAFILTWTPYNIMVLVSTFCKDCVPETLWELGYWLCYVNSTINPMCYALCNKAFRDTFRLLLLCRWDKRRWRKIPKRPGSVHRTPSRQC
Assay: Measurement of M1 receptor positive allosteric modulator (M1PAM) activity, calcium fluorescence (FLIPRtetra) in CHO-K1 cells in the presence of acetylcholine at EC20
Type: cell-based
Settings: in the presence of acetylcholine at EC20 (final 0.6 nM), CHO-K1 cells expressing hCHRM1; for EC50: inflection point of M1PAM activity, read-out: IP value; for activity (%) at 10 μM: test compound 10 μM
Method in brief: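 PAM activity was measured as calcium flux by FLIPRtetra over 1 min after co-addition of compound and EC20 acetylcholine (final 0.6 nM) to Fluo-4-loaded hCHRM1 CHO-K1 cells. The response was scaled between DMSO (0%) and 1 μM acetylcholine (100%), and the inflection point of the concentration curve gives the IP value.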

Row | EC50 [nM] | activity (%) at 10 μM [%] | Structure (SMILES)
1 | 61 | 102 | C=C(C)c1ccc(Oc2nccc3c2C(=O)N(Cc2ccc(-c4cnnc(C)c4)cc2)C3)c(F)c1 [Example 411, 4-(2-fluoro-4-(prop-1-en-2-yl)phenoxy)-2-(4-(6-methylpyridazin-4-yl)benzyl)-1,2-dihydro-3H-pyrrolo[3,4-c]pyridin-3-one]
2 | 8 | 101 | Cc1nn(C)cc1-c1ccc(CN2Cc3ccnc(Oc4ccc(C(C)(C)O)cc4F)c3C2=O)cc1 [Example 412, 2-(4-(1,3-dimethyl-1H-pyrazol-4-yl)benzyl)-4-(2-fluoro-4-(2-hydroxypropan-2-yl)phenoxy)-1,2-dihydro-3H-pyrrolo[3,4-c]pyridin-3-one]
3 | 10 | 104 | Cn1ccc(-c2ccc(CN3Cc4ccnc(Oc5ccc(C(C)(C)O)cc5F)c4C3=O)cc2)n1 [Example 413, 4-(2-fluoro-4-(2-hydroxypropan-2-yl)phenoxy)-2-(4-(1-methyl-1H-pyrazol-3-yl)benzyl)-1,2-dihydro-3H-pyrrolo[3,4-c]pyridin-3-one]
4 | 16 | 106 | Cc1cc(C)c(Oc2nccc3c2C(=O)N(Cc2ccc(-c4cnn(C)c4)cc2)C3)c(F)c1 [Example 415, 4-(2-fluoro-4,6-dimethylphenoxy)-2-(4-(1-methyl-1H-pyrazol-4-yl)benzyl)-1,2-dihydro-3H-pyrrolo[3,4-c]pyridin-3-one]
5 | 13 | 98 | Cn1ccc(-c2ccc(CN3Cc4ccnc(Oc5ccc(C(F)(F)F)cc5C#N)c4C3=O)cc2)n1 [Example 416, 2-((2-(4-(1-methyl-1H-pyrazol-3-yl)benzyl)-3-oxo-2,3-dihydro-1H-pyrrolo[3,4-c]pyridin-4-yl)oxy)-5-(trifluoromethyl)benzonitrile]
6 | 16 | 96 | Cc1cc(C#N)cc(F)c1Oc1nccc2c1C(=O)N(Cc1ccc(-c3ccn(C)n3)cc1)C2 [Example 417, 3-fluoro-5-methyl-4-((2-(4-(1-methyl-1H-pyrazol-3-yl)benzyl)-3-oxo-2,3-dihydro-1H-pyrrolo[3,4-c]pyridin-4-yl)oxy)benzonitrile]
7 | 7.3 | 102 | Cn1cnc(-c2ccc(CN3Cc4ccnc(Oc5ccc(C(F)(F)F)cc5F)c4C3=O)cc2)c1 [Example 419, 4-(2-fluoro-4-(trifluoromethyl)phenoxy)-2-(4-(1-methyl-1H-imidazol-4-yl)benzyl)-1,2-dihydro-3H-pyrrolo[3,4-c]pyridin-3-one]
8 | 86 | 102 | C[C@@H](O)[C@@H](C)Oc1nccc2c1C(=O)N(Cc1c(F)cc(F)cc1F)C2 [Example 425, 4-(((2R,3R)-3-hydroxybutan-2-yl)oxy)-2-(2,4,6-trifluorobenzyl)-1,2-dihydro-3H-pyrrolo[3,4-c]pyridin-3-one]
9 | 31 | 111 | Cc1ccc(Oc2nccc3c2C(=O)N(Cc2ccc(-n4cnc(C)c4)cc2)C3)c(F)c1 [Example 427, 4-(2-fluoro-4-methylphenoxy)-2-(4-(4-methyl-1H-imidazol-1-yl)benzyl)-1,2-dihydro-3H-pyrrolo[3,4-c]pyridin-3-one]
10 | 14 | 106 | Cc1cc(F)c(Oc2nccc3c2C(=O)N(Cc2ccc(-n4cnc(C)c4)cc2)C3)c(F)c1 [Example 428, 4-(2,6-difluoro-4-methylphenoxy)-2-(4-(4-methyl-1H-imidazol-1-yl)benzyl)-1,2-dihydro-3H-pyrrolo[3,4-c]pyridin-3-one]

Continued, compound first:

Row | Structure (SMILES) | EC50 [nM] | activity (%) at 10 μM [%]
11 | Cn1cc(-c2ccc(CN3Cc4ccnc(Oc5ccc(C(C)(C)C#N)cc5F)c4C3=O)cc2)cn1 [Example 409, 2-(3-fluoro-4-((2-(4-(1-methyl-1H-pyrazol-4-yl)benzyl)-3-oxo-2,3-dihydro-1H-pyrrolo[3,4-c]pyridin-4-yl)oxy)phenyl)-2-methylpropanenitrile] | 3.4 | 96
12 | Cc1cc(-c2ccc(CN3Cc4ccnc(Oc5ccc(C(C)(C)F)cc5F)c4C3=O)cc2)cnn1 [Example 410, 4-(2-fluoro-4-(2-fluoropropan-2-yl)phenoxy)-2-(4-(6-methylpyridazin-4-yl)benzyl)-1,2-dihydro-3H-pyrrolo[3,4-c]pyridin-3-one] | 19 | 99
13 | Cc1cc(C)c(Oc2nccc3c2C(=O)N(Cc2ccc(-c4ccn(C)n4)cc2)C3)c(F)c1 [Example 414, 4-(2-fluoro-4,6-dimethylphenoxy)-2-(4-(1-methyl-1H-pyrazol-3-yl)benzyl)-1,2-dihydro-3H-pyrrolo[3,4-c]pyridin-3-one] | 69 | 103
14 | Cc1cn(-c2ccc(CN3Cc4ccnc(Oc5ccc(C(F)(F)F)cc5F)c4C3=O)cc2)cn1 [Example 418, 4-(2-fluoro-4-(trifluoromethyl)phenoxy)-2-(4-(4-methyl-1H-imidazol-1-yl)benzyl)-1,2-dihydro-3H-pyrrolo[3,4-c]pyridin-3-one] | 9.1 | 95
15 | Cc1ccc(Oc2nccc3c2C(=O)N(Cc2ccc(-c4ccn(C)n4)cc2)C3)c(F)c1 [Example 420, 4-(2-fluoro-4-methylphenoxy)-2-(4-(1-methyl-1H-pyrazol-3-yl)benzyl)-1,2-dihydro-3H-pyrrolo[3,4-c]pyridin-3-one] | 39 | 101
16 | Cc1cc(C(F)(F)F)cc(F)c1Oc1nccc2c1C(=O)N(Cc1ccc(-c3ccn(C)n3)cc1)C2 [Example 421, 4-(2-fluoro-6-methyl-4-(trifluoromethyl)phenoxy)-2-(4-(1-methyl-1H-pyrazol-3-yl)benzyl)-1,2-dihydro-3H-pyrrolo[3,4-c]pyridin-3-one] | 39 | 112
17 | NC(=O)c1ccc(CN2Cc3ccnc(Oc4ccc(C(F)(F)F)cc4F)c3C2=O)cc1 [Example 422, 4-((4-(2-fluoro-4-(trifluoromethyl)phenoxy)-3-oxo-1,3-dihydro-2H-pyrrolo[3,4-c]pyridin-2-yl)methyl)benzamide] | 12 | 107
18 | C[C@@H](O)[C@@H](C)Oc1nccc2c1C(=O)N(Cc1ccc(Cl)cc1)C2 [Example 423, 2-(4-chlorobenzyl)-4-(((2R,3R)-3-hydroxybutan-2-yl)oxy)-1,2-dihydro-3H-pyrrolo[3,4-c]pyridin-3-one] | 90 | 96
19 | C[C@@H](O)[C@@H](C)Oc1nccc2c1C(=O)N(Cc1ccc(F)cc1F)C2 [Example 424, 2-(2,4-difluorobenzyl)-4-(((2R,3R)-3-hydroxybutan-2-yl)oxy)-1,2-dihydro-3H-pyrrolo[3,4-c]pyridin-3-one] | 88 | 106
20 | C[C@@H](O)[C@@H](C)Oc1nccc2c1C(=O)N(Cc1ccc(-c3ccn(C)n3)cc1)C2 [Example 426, 4-(((2R,3R)-3-hydroxybutan-2-yl)oxy)-2-(4-(1-methyl-1H-pyrazol-3-yl)benzyl)-1,2-dihydro-3H-pyrrolo[3,4-c]pyridin-3-one] | 8.8 | 102
21 | CCc1cc(F)c(Oc2nccc3c2C(=O)N(Cc2ccc(-n4cnc(C)c4)cc2)C3)c(F)c1 [Example 429, 4-(4-ethyl-2,6-difluorophenoxy)-2-(4-(4-methyl-1H-imidazol-1-yl)benzyl)-1,2-dihydro-3H-pyrrolo[3,4-c]pyridin-3-one] | 11 | 109
